Data: publication doi:10.1101/2024.05.22.595443v1 (biorxiv, 2024)
pKd: −log10 of the molar value.

Tests used:
[1] = target: EZH2 (Homo sapiens, UniProt Q15910); experiment: SPR; assay type: binding
[2] = target: PRMT5:MEP50 complex (Homo sapiens, UniProt O14744); experiment: SPR; assay type: binding
PRMT5:MEP50 complex, sequence (O14744 2-637): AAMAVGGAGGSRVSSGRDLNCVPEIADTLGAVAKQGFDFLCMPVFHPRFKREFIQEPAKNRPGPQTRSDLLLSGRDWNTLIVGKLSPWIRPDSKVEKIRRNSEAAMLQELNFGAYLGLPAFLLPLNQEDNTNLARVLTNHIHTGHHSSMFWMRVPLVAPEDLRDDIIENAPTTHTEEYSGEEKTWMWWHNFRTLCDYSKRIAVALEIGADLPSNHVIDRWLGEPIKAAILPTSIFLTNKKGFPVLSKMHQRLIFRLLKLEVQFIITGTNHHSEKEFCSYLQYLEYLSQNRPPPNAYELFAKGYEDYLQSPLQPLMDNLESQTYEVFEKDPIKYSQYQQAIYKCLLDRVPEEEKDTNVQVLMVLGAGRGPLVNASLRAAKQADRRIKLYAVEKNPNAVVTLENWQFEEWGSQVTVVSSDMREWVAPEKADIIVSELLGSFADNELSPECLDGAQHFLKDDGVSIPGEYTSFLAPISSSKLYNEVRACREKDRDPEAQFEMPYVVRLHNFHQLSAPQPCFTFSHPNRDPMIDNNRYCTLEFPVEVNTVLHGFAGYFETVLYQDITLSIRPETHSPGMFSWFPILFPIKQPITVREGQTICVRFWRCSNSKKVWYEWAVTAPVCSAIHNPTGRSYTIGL
PRMT5:MEP50 complex, sequence (Q9BQA1 whole entry partner): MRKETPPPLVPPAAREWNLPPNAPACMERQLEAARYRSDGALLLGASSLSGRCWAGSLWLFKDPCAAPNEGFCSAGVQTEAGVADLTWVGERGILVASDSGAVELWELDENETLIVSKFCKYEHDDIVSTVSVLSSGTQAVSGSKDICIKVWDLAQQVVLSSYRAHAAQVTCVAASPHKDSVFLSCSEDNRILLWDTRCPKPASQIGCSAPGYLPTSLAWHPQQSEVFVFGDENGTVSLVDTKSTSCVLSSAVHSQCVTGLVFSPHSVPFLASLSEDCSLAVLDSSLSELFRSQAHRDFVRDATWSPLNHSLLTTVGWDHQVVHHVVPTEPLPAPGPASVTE

EZH2, sequence (Q15910 whole entry): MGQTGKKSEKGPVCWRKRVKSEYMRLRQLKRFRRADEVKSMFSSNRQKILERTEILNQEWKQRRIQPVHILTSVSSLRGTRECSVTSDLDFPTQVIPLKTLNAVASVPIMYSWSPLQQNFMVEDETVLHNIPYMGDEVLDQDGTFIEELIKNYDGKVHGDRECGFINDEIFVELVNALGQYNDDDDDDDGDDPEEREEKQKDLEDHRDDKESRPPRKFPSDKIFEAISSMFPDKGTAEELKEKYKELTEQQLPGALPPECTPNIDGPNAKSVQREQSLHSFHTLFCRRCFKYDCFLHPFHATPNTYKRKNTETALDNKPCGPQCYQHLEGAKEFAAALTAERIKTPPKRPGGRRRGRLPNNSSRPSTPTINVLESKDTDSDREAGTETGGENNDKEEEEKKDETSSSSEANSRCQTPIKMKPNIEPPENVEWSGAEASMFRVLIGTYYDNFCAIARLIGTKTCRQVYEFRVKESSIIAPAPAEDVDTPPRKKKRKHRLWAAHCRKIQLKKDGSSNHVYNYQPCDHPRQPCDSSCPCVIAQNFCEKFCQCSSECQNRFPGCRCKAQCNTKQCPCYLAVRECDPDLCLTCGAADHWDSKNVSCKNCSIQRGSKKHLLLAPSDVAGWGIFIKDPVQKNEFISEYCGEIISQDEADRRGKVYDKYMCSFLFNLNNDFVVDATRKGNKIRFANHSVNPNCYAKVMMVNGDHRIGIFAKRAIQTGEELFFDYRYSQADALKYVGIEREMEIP

Compound: O=c1oc2c(O)c(O)cc3c(=O)oc4c(O)c(O)cc1c4c23 [Ellagic acid]
- pKd [1]: 5.48
- pKd [2]: 4.18
